Several values for one entry are separate records, joined by “and”; a condition that tells them apart may be missing. Identical values can stand only once. Numbers after ± are expanded uncertainties.
Details: for speed of sound / mass density / vapor or sublimation pressure / viscosity: Liquid; for speed of sound: Frequency=3 MHz, Single path-length method; for mass density: Vibrating tube method; for vapor or sublimation pressure: Ebulliometric method (Recirculating still); for surface tension liquid-gas: Drop volume; for viscosity: Capillary tube (Ostwald / Ubbelohde) method

## CCc1cccs1 [2-ethylthiophene]
313.15 K, 100 kPa
  speed of sound: 1237.7 ± 1.1 m/s
  mass density: 973.34 ± 0.54 kg/m3 and 973.3 ± 0.54 kg/m3
313.15 K, 2000 kPa
  mass density: 975 ± 0.54 kg/m3
313.15 K, 5000 kPa
  mass density: 977.54 ± 0.54 kg/m3
313.15 K, 7000 kPa
  mass density: 979.22 ± 0.54 kg/m3
313.15 K, 10000 kPa
  mass density: 981.68 ± 0.54 kg/m3
313.15 K, 15000 kPa
  mass density: 985.61 ± 0.55 kg/m3
313.15 K, 20000 kPa
  mass density: 989.42 ± 0.55 kg/m3
313.15 K, 25000 kPa
  mass density: 993.09 ± 0.54 kg/m3
313.15 K, 30000 kPa
  mass density: 996.63 ± 0.54 kg/m3
313.15 K, 35000 kPa
  mass density: 1000.06 ± 0.54 kg/m3
313.15 K, 40000 kPa
  mass density: 1003.38 ± 0.54 kg/m3
313.15 K, 45000 kPa
  mass density: 1006.6 ± 0.55 kg/m3
313.15 K, 50000 kPa
  mass density: 1009.71 ± 0.55 kg/m3
313.15 K, 55000 kPa
  mass density: 1012.75 ± 0.56 kg/m3
313.15 K, 60000 kPa
  mass density: 1015.69 ± 0.56 kg/m3
313.15 K, 65000 kPa
  mass density: 1018.54 ± 0.57 kg/m3
315.55 K
  vapor or sublimation pressure: 3.01 ± 0.1 kPa
315.65 K
  surface tension liquid-gas: 28.16 ± 0.28 mN/m
315.65 K, 100 kPa
  viscosity: 0.613 ± 0.007 mPa·s
  speed of sound: 1227.7 ± 1.1 m/s
  mass density: 970.77 ± 0.54 kg/m3
318.15 K
  surface tension liquid-gas: 27.84 ± 0.28 mN/m
318.15 K, 100 kPa
  viscosity: 0.5981 ± 0.0069 mPa·s
  speed of sound: 1218 ± 1.1 m/s
  mass density: 968.32 ± 0.54 kg/m3 and 968.24 ± 0.54 kg/m3
318.15 K, 2000 kPa
  mass density: 970.02 ± 0.54 kg/m3
318.15 K, 5000 kPa
  mass density: 972.64 ± 0.54 kg/m3
318.15 K, 7000 kPa
  mass density: 974.36 ± 0.54 kg/m3
318.15 K, 10000 kPa
  mass density: 976.86 ± 0.55 kg/m3
318.15 K, 15000 kPa
  mass density: 980.93 ± 0.55 kg/m3
318.15 K, 20000 kPa
  mass density: 984.83 ± 0.55 kg/m3
318.15 K, 25000 kPa
  mass density: 988.58 ± 0.55 kg/m3
318.15 K, 30000 kPa
  mass density: 992.22 ± 0.55 kg/m3
318.15 K, 35000 kPa
  mass density: 995.71 ± 0.54 kg/m3
318.15 K, 40000 kPa
  mass density: 999.11 ± 0.54 kg/m3
318.15 K, 45000 kPa
  mass density: 1002.39 ± 0.54 kg/m3
318.15 K, 50000 kPa
  mass density: 1005.57 ± 0.55 kg/m3
318.15 K, 55000 kPa
  mass density: 1008.66 ± 0.55 kg/m3
318.15 K, 60000 kPa
  mass density: 1011.66 ± 0.56 kg/m3
318.15 K, 65000 kPa
  mass density: 1014.56 ± 0.56 kg/m3
320.65 K
  surface tension liquid-gas: 27.54 ± 0.28 mN/m
320.65 K, 100 kPa
  viscosity: 0.584 ± 0.0068 mPa·s
  speed of sound: 1208.3 ± 1.1 m/s
  mass density: 965.71 ± 0.54 kg/m3
321.73 K
  vapor or sublimation pressure: 4.095 ± 0.1 kPa
323.15 K
  surface tension liquid-gas: 27.27 ± 0.28 mN/m
323.15 K, 100 kPa
  viscosity: 0.5702 ± 0.0067 mPa·s
  speed of sound: 1198 ± 1.1 m/s
  mass density: 963.21 ± 0.54 kg/m3 and 963.18 ± 0.54 kg/m3
323.15 K, 2000 kPa
  mass density: 964.97 ± 0.54 kg/m3
323.15 K, 5000 kPa
  mass density: 967.69 ± 0.54 kg/m3
323.15 K, 7000 kPa
  mass density: 969.44 ± 0.55 kg/m3
323.15 K, 10000 kPa
  mass density: 972.03 ± 0.55 kg/m3
323.15 K, 15000 kPa
  mass density: 976.2 ± 0.55 kg/m3
323.15 K, 20000 kPa
  mass density: 980.22 ± 0.55 kg/m3
323.15 K, 25000 kPa
  mass density: 984.06 ± 0.55 kg/m3
323.15 K, 30000 kPa
  mass density: 987.78 ± 0.55 kg/m3
323.15 K, 35000 kPa
  mass density: 991.35 ± 0.55 kg/m3
323.15 K, 40000 kPa
  mass density: 994.81 ± 0.54 kg/m3
323.15 K, 45000 kPa
  mass density: 998.17 ± 0.54 kg/m3
323.15 K, 50000 kPa
  mass density: 1001.41 ± 0.54 kg/m3
323.15 K, 55000 kPa
  mass density: 1004.56 ± 0.55 kg/m3
323.15 K, 60000 kPa
  mass density: 1007.62 ± 0.55 kg/m3
323.15 K, 65000 kPa
  mass density: 1010.59 ± 0.56 kg/m3
325.65 K
  surface tension liquid-gas: 26.93 ± 0.28 mN/m
325.65 K, 100 kPa
  viscosity: 0.5566 ± 0.0067 mPa·s
  speed of sound: 1188.3 ± 1.1 m/s
  mass density: 960.64 ± 0.54 kg/m3
326.03 K
  vapor or sublimation pressure: 5.05 ± 0.1 kPa
328.15 K
  surface tension liquid-gas: 26.69 ± 0.28 mN/m
328.15 K, 100 kPa
  viscosity: 0.5437 ± 0.0066 mPa·s
  speed of sound: 1179.1 ± 1.1 m/s
  mass density: 958.12 ± 0.54 kg/m3 and 958.1 ± 0.54 kg/m3
328.15 K, 2000 kPa
  mass density: 959.94 ± 0.54 kg/m3
328.15 K, 5000 kPa
  mass density: 962.71 ± 0.54 kg/m3
328.15 K, 7000 kPa
  mass density: 964.53 ± 0.55 kg/m3
328.15 K, 10000 kPa
  mass density: 967.18 ± 0.55 kg/m3
328.15 K, 15000 kPa
  mass density: 971.45 ± 0.55 kg/m3
328.15 K, 20000 kPa
  mass density: 975.56 ± 0.55 kg/m3
328.15 K, 25000 kPa
  mass density: 979.5 ± 0.55 kg/m3
328.15 K, 30000 kPa
  mass density: 983.31 ± 0.55 kg/m3
328.15 K, 35000 kPa
  mass density: 986.98 ± 0.55 kg/m3
328.15 K, 40000 kPa
  mass density: 990.51 ± 0.55 kg/m3
328.15 K, 45000 kPa
  mass density: 993.94 ± 0.55 kg/m3
328.15 K, 50000 kPa
  mass density: 997.24 ± 0.54 kg/m3
328.15 K, 55000 kPa
  mass density: 1000.47 ± 0.54 kg/m3
328.15 K, 60000 kPa
  mass density: 1003.58 ± 0.55 kg/m3
328.15 K, 65000 kPa
  mass density: 1006.6 ± 0.55 kg/m3
330.65 K
  surface tension liquid-gas: 26.36 ± 0.28 mN/m
330.65 K, 100 kPa
  viscosity: 0.5313 ± 0.0066 mPa·s
  speed of sound: 1168.7 ± 1.1 m/s
  mass density: 955.55 ± 0.54 kg/m3
330.78 K
  vapor or sublimation pressure: 6.285 ± 0.1 kPa
333.15 K
  surface tension liquid-gas: 26.03 ± 0.27 mN/m
333.15 K, 100 kPa
  viscosity: 0.519 ± 0.0065 mPa·s
  speed of sound: 1159.1 ± 1.1 m/s
  mass density: 952.99 ± 0.54 kg/m3 and 953 ± 0.54 kg/m3
333.15 K, 2000 kPa
  mass density: 954.85 ± 0.54 kg/m3
333.15 K, 5000 kPa
  mass density: 957.72 ± 0.55 kg/m3
333.15 K, 7000 kPa
  mass density: 959.58 ± 0.55 kg/m3
333.15 K, 10000 kPa
  mass density: 962.31 ± 0.55 kg/m3
333.15 K, 15000 kPa
  mass density: 966.72 ± 0.55 kg/m3
333.15 K, 20000 kPa
  mass density: 970.93 ± 0.55 kg/m3
333.15 K, 25000 kPa
  mass density: 974.97 ± 0.55 kg/m3
333.15 K, 30000 kPa
  mass density: 978.86 ± 0.55 kg/m3
333.15 K, 35000 kPa
  mass density: 982.61 ± 0.55 kg/m3
333.15 K, 40000 kPa
  mass density: 986.22 ± 0.55 kg/m3
333.15 K, 45000 kPa
  mass density: 989.73 ± 0.55 kg/m3
333.15 K, 50000 kPa
  mass density: 993.09 ± 0.55 kg/m3
333.15 K, 55000 kPa
  mass density: 996.39 ± 0.54 kg/m3
333.15 K, 60000 kPa
  mass density: 999.56 ± 0.54 kg/m3
333.15 K, 65000 kPa
  mass density: 1002.62 ± 0.55 kg/m3
335.65 K
  surface tension liquid-gas: 25.74 ± 0.27 mN/m
335.65 K, 100 kPa
  viscosity: 0.5072 ± 0.0065 mPa·s
  speed of sound: 1149.9 ± 1.1 m/s
  mass density: 950.44 ± 0.54 kg/m3
336.67 K
  vapor or sublimation pressure: 8.17 ± 0.1 kPa
338.15 K
  surface tension liquid-gas: 25.45 ± 0.27 mN/m
338.15 K, 100 kPa
  viscosity: 0.4965 ± 0.0064 mPa·s
  speed of sound: 1140.3 ± 1.1 m/s
  mass density: 947.86 ± 0.54 kg/m3 and 947.89 ± 0.54 kg/m3
338.15 K, 2000 kPa
  mass density: 949.78 ± 0.54 kg/m3
338.15 K, 5000 kPa
  mass density: 952.72 ± 0.55 kg/m3
338.15 K, 7000 kPa
  mass density: 954.65 ± 0.55 kg/m3
338.15 K, 10000 kPa
  mass density: 957.46 ± 0.55 kg/m3
338.15 K, 15000 kPa
  mass density: 961.97 ± 0.55 kg/m3
338.15 K, 20000 kPa
  mass density: 966.32 ± 0.55 kg/m3
338.15 K, 25000 kPa
  mass density: 970.44 ± 0.55 kg/m3
338.15 K, 30000 kPa
  mass density: 974.41 ± 0.55 kg/m3
338.15 K, 35000 kPa
  mass density: 978.26 ± 0.55 kg/m3
338.15 K, 40000 kPa
  mass density: 981.96 ± 0.55 kg/m3
338.15 K, 45000 kPa
  mass density: 985.53 ± 0.55 kg/m3
338.15 K, 50000 kPa
  mass density: 988.98 ± 0.55 kg/m3
338.15 K, 55000 kPa
  mass density: 992.31 ± 0.55 kg/m3
338.15 K, 60000 kPa
  mass density: 995.56 ± 0.55 kg/m3
338.15 K, 65000 kPa
  mass density: 998.71 ± 0.54 kg/m3
342 K
  vapor or sublimation pressure: 10.22 ± 0.1 kPa
346.57 K
  vapor or sublimation pressure: 12.34 ± 0.1 kPa
351.71 K
  vapor or sublimation pressure: 15.14 ± 0.1 kPa
356.68 K
  vapor or sublimation pressure: 18.34 ± 0.1 kPa
360.83 K
  vapor or sublimation pressure: 21.48 ± 0.1 kPa
365.1 K
  vapor or sublimation pressure: 24.99 ± 0.1 kPa
370.4 K
  vapor or sublimation pressure: 30.07 ± 0.11 kPa
374.16 K
  vapor or sublimation pressure: 34.19 ± 0.11 kPa
379.56 K
  vapor or sublimation pressure: 40.88 ± 0.11 kPa
382.77 K
  vapor or sublimation pressure: 45.27 ± 0.11 kPa
387.16 K
  vapor or sublimation pressure: 51.94 ± 0.12 kPa
390.75 K
  vapor or sublimation pressure: 57.93 ± 0.12 kPa
394.79 K
  vapor or sublimation pressure: 65.36 ± 0.13 kPa
397.67 K
  vapor or sublimation pressure: 71.07 ± 0.13 kPa
401.74 K
  vapor or sublimation pressure: 79.78 ± 0.14 kPa
404.64 K
  vapor or sublimation pressure: 86.5 ± 0.14 kPa
406.64 K
  vapor or sublimation pressure: 91.35 ± 0.14 kPa
409.15 K
  vapor or sublimation pressure: 97.8 ± 0.15 kPa
410.46 K
  vapor or sublimation pressure: 101.33 ± 0.15 kPa

Reference: the NIST ThermoML archive (doi:10.1021/acs.jced.8b00153)
